According to PubChem BioAssay (NCI):
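Five compound concentrations were applied to cells in 96-well plates for 48 hours; endpoints were derived by simple linear interpolation of the resulting dose-response curve. TGI marks complete inhibition of growth.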

Tests used:
Test in all cases: inhibition of tumour cell growth, NCI panel, 48 h
HT29 colon = system: HT29 colon
SF-539 CNS = system: SF-539 CNS
EKVX NSCLC = system: EKVX NSCLC
UO-31 renal = system: UO-31 renal
SNB-75 CNS = system: SNB-75 CNS
KM20L2 colon = system: KM20L2 colon
HL-60(TB) leukemia = system: HL-60(TB) leukemia
M19-MEL melanoma = system: M19-MEL melanoma
COLO 205 colon = system: COLO 205 colon
KM12 colon = system: KM12 colon
OVCAR-4 ovarian = system: OVCAR-4 ovarian
SNB-78 CNS = system: SNB-78 CNS
RXF 393 renal = system: RXF 393 renal
LOX IMVI melanoma = system: LOX IMVI melanoma
SF-295 CNS = system: SF-295 CNS
HOP-62 NSCLC = system: HOP-62 NSCLC
A549 NSCLC = system: A549 NSCLC
SNB-19 CNS = system: SNB-19 CNS
NCI-H460 lung = system: NCI-H460 lung
NCI-H23 lung = system: NCI-H23 lung
OVCAR-5 ovarian = system: OVCAR-5 ovarian
SW-620 colon = system: SW-620 colon
SF-268 CNS = system: SF-268 CNS
SN12C renal = system: SN12C renal
UACC-257 melanoma = system: UACC-257 melanoma
NCI-H226 lung = system: NCI-H226 lung
SK-MEL-2 melanoma = system: SK-MEL-2 melanoma
SK-MEL-28 melanoma = system: SK-MEL-28 melanoma
U251 CNS = system: U251 CNS
TK-10 renal = system: TK-10 renal
DMS 114 small cell lung = system: DMS 114 small cell lung
ACHN renal = system: ACHN renal
LXFL 529 NSCLC = system: LXFL 529 NSCLC
DMS 273 small cell lung = system: DMS 273 small cell lung
M14 melanoma = system: M14 melanoma
786-0 renal = system: 786-0 renal
DLD-1 colon = system: DLD-1 colon
HCT-116 colon = system: HCT-116 colon
HCC-2998 colon = system: HCC-2998 colon
NCI-H522 lung = system: NCI-H522 lung
HOP-92 NSCLC = system: HOP-92 NSCLC
CAKI-1 renal = system: CAKI-1 renal
MALME-3M melanoma = system: MALME-3M melanoma
OVCAR-8 ovarian = system: OVCAR-8 ovarian
T-47D breast = system: T-47D breast
HCT-15 colon = system: HCT-15 colon
MDA-N = system: MDA-N
BT-549 breast = system: BT-549 breast
SK-MEL-5 melanoma = system: SK-MEL-5 melanoma
A498 renal = system: A498 renal
PC-3 prostate = system: PC-3 prostate
HS 578T breast = system: HS 578T breast
NCI/ADR-RES ovarian = system: NCI/ADR-RES ovarian
IGROV1 ovarian = system: IGROV1 ovarian
MDA-MB-435 = system: MDA-MB-435
MOLT-4 leukemia = system: MOLT-4 leukemia
UACC-62 melanoma = system: UACC-62 melanoma
MCF7 breast = system: MCF7 breast
OVCAR-3 ovarian = system: OVCAR-3 ovarian
DU-145 prostate = system: DU-145 prostate
SK-OV-3 ovarian = system: SK-OV-3 ovarian
RPMI-8226 leukemia = system: RPMI-8226 leukemia
CCRF-CEM leukemia = system: CCRF-CEM leukemia
K-562 leukemia = system: K-562 leukemia
MDA-MB-231 breast = system: MDA-MB-231 breast
SR leukemia = system: SR leukemia

Compound: Cc1cc(-c2ccccc2)cc2[n+]1CC=C2
- TGI (HT29 colon): > 100 µM
- TGI (SF-539 CNS): > 100 µM
- TGI (EKVX NSCLC): > 100 µM
- TGI (UO-31 renal): > 100 µM
- TGI (SNB-75 CNS): > 100 µM
- TGI (KM20L2 colon): > 100 µM
- TGI (HL-60(TB) leukemia): > 100 µM
- TGI (M19-MEL melanoma): > 100 µM
- TGI (COLO 205 colon): > 100 µM
- TGI (KM12 colon): > 100 µM
- TGI (OVCAR-4 ovarian): > 100 µM
- TGI (SNB-78 CNS): > 100 µM
- TGI (RXF 393 renal): 97.6 µM
- TGI (LOX IMVI melanoma): > 100 µM
- TGI (SF-295 CNS): > 100 µM
- TGI (HOP-62 NSCLC): > 100 µM
- TGI (A549 NSCLC): > 100 µM
- TGI (SNB-19 CNS): > 100 µM
- TGI (NCI-H460 lung): > 100 µM
- TGI (NCI-H23 lung): > 100 µM
- TGI (OVCAR-5 ovarian): > 100 µM
- TGI (SW-620 colon): > 100 µM
- TGI (SF-268 CNS): > 100 µM
- TGI (SN12C renal): > 100 µM
- TGI (UACC-257 melanoma): > 100 µM
- TGI (NCI-H226 lung): > 100 µM
- TGI (SK-MEL-2 melanoma): > 100 µM
- TGI (SK-MEL-28 melanoma): > 100 µM
- TGI (U251 CNS): > 100 µM
- TGI (TK-10 renal): > 100 µM
- TGI (DMS 114 small cell lung): > 100 µM
- TGI (ACHN renal): > 100 µM
- TGI (LXFL 529 NSCLC): > 100 µM
- TGI (DMS 273 small cell lung): > 100 µM
- TGI (M14 melanoma): > 100 µM
- TGI (786-0 renal): > 100 µM
- TGI (DLD-1 colon): > 100 µM
- TGI (HCT-116 colon): > 100 µM
- TGI (HCC-2998 colon): > 100 µM
- TGI (NCI-H522 lung): > 100 µM
- TGI (HOP-92 NSCLC): 94.8 µM
- TGI (CAKI-1 renal): > 100 µM
- TGI (MALME-3M melanoma): > 100 µM
- TGI (OVCAR-8 ovarian): > 100 µM

Compound: CNC1C(OC2C(OC3C(O)C(O)C(O)C(O)C3O)OC(C)C2(O)CO)OC(CO)C(O)C1O (configuration not stated) (tested in a mixture with another compound)
- TGI (HT29 colon): > 100 µM
- TGI (T-47D breast): > 100 µM
- TGI (HCT-15 colon): > 100 µM
- TGI (SF-539 CNS): > 100 µM
- TGI (EKVX NSCLC): > 100 µM
- TGI (UO-31 renal): > 100 µM
- TGI (SNB-75 CNS): > 100 µM
- TGI (HL-60(TB) leukemia): > 100 µM
- TGI (MDA-N): > 100 µM
- TGI (BT-549 breast): > 100 µM
- TGI (SK-MEL-5 melanoma): > 100 µM
- TGI (A498 renal): > 100 µM
- TGI (PC-3 prostate): > 100 µM
- TGI (COLO 205 colon): > 100 µM
- TGI (KM12 colon): > 100 µM
- TGI (OVCAR-4 ovarian): > 100 µM
- TGI (RXF 393 renal): > 100 µM
- TGI (HS 578T breast): > 100 µM
- TGI (NCI/ADR-RES ovarian): > 100 µM
- TGI (LOX IMVI melanoma): > 100 µM
- TGI (SF-295 CNS): > 100 µM
- TGI (HOP-62 NSCLC): > 100 µM
- TGI (A549 NSCLC): > 100 µM
- TGI (SNB-19 CNS): > 100 µM
- TGI (NCI-H460 lung): > 100 µM
- TGI (NCI-H23 lung): > 100 µM
- TGI (IGROV1 ovarian): > 100 µM
- TGI (OVCAR-5 ovarian): > 100 µM
- TGI (SW-620 colon): > 100 µM
- TGI (MDA-MB-435): > 100 µM
- TGI (SF-268 CNS): > 100 µM
- TGI (SN12C renal): > 100 µM
- TGI (MOLT-4 leukemia): > 100 µM
- TGI (UACC-257 melanoma): > 100 µM
- TGI (NCI-H226 lung): > 100 µM
- TGI (UACC-62 melanoma): > 100 µM
- TGI (SK-MEL-2 melanoma): > 100 µM
- TGI (MCF7 breast): > 100 µM
- TGI (OVCAR-3 ovarian): > 100 µM
- TGI (DU-145 prostate): > 100 µM
- TGI (SK-MEL-28 melanoma): > 100 µM
- TGI (U251 CNS): > 100 µM
- TGI (TK-10 renal): > 100 µM
- TGI (SK-OV-3 ovarian): > 100 µM
- TGI (ACHN renal): > 100 µM
- TGI (RPMI-8226 leukemia): > 100 µM
- TGI (M14 melanoma): > 100 µM
- TGI (786-0 renal): > 100 µM
- TGI (HCT-116 colon): > 100 µM
- TGI (HCC-2998 colon): > 100 µM
- TGI (NCI-H522 lung): > 100 µM
- TGI (HOP-92 NSCLC): > 100 µM
- TGI (CCRF-CEM leukemia): > 100 µM
- TGI (K-562 leukemia): > 100 µM
- TGI (MDA-MB-231 breast): > 100 µM
- TGI (SR leukemia): > 100 µM
- TGI (MALME-3M melanoma): > 100 µM
- TGI (OVCAR-8 ovarian): > 100 µM
